Test results reported in patent US7138361B2, “Herbicidal heterocycles” (E. I. du Pont de Nemours and Company, priority 2000, dated 2006).

What was measured:
Assay in all cases: Test C preemergence
Type in all cases: in vivo
[1] = system: Nightshade; conditions: Rate 500 g/ha, visual evaluation after 12 to 14 days
[2] = system: Surinam grass (Brachiaria decumbens); conditions: for Plant response rating, Surinam grass: scale 0 to 100, 0 no effect, 100 complete control; for Plant response rating (0 to 100), Surinam grass: visual evaluation after 12 to 14 days
Text: (§1) Seeds of plant species selected from bermudagrass (Cynodon dactylon), Surinam grass (Brachiaria decumbens), cocklebur (Xanthium strumarium), corn (Zea mays), crabgrass (Digitaria sanguinalis), woolly cupgrass (Eriochloa villosa), giant foxtail (Setaria faberii), goosegrass (Eleusine indica), johnsongrass (Sorghum halepense), kochia (Kochia scoparia), lambsquarters (Chenopodium album), morningglory (Ipomoea hederacea), yellow nutsedge (Cyperus esculentus), pigweed (Amaranthus retroflexus), common ragweed (Ambrosia elatior), soybean (Glycine max) and velvetleaf (Abutilon theophrasti) were planted and treated preemergence with test chemicals formulated in a non-phytotoxic solvent mixture which included a surfactant.
(§2) At the same time, plants selected from these crop and weed species and also winter barley (Hordeum vulgare), blackgrass (Alopecurus myosuroides), canary grass (Phalaris minor), chickweed (Stellaria media), downy brome (Bromus tectorum), green foxtail (Setaria viridis), Italian ryegrass (Lolium multiflorum), wheat (Triticum aestivum), wild oat (Avena fatua) and windgrass (Apera spica-venti) were treated with postemergence applications of some of the test chemicals formulated in the same manner. Plants ranged in height from 2 to 18 cm (1- to 4-leaf stage) for postemergence treatments. Plant species in the flooded paddy test consisted of rice (Oryza saliva), smallflower flatsedge (Cyperus difformis), duck salad (Heteranthera limosa) and barnyardgrass (Echinochloa crus-galli) grown to the 2-leaf stage for testing. Treated plants and controls were maintained in a greenhouse for 12 to 14 days, after which time all species were compared to controls and visually evaluated. Plant response ratings, summarized in Table C, are based on a scale of 0 to 100 where 0 is no effect and 100 is complete control. A dash (-) response means no test result.

[3] = system: crabgrass (Digitaria sanguinalis); conditions: for Plant response rating, Crabgrass: scale 0 to 100, 0 no effect, 100 complete control; for Plant response rating (0 to 100), Crabgrass: visual evaluation after 12 to 14 days
Text: as §1, §2

[4] = system: bermudagrass (Cynodon dactylon); conditions: for Plant response rating, Bermudagrass: scale 0 to 100, 0 no effect, 100 complete control; for Plant response rating (0 to 100 where 0 is no effect and 100 is complete control), Bermudagrass: visual evaluation after 12 to 14 days
Text: as §1, §2

[5] = system: kochia (Kochia scoparia); conditions: for Plant response rating, Kochia: scale 0 to 100, 0 no effect, 100 complete control; for Plant response rating (0 to 100), Kochia: visual evaluation after 12 to 14 days
Text: as §1, §2

[6] = system: woolly cupgrass (Eriochloa villosa); conditions: for Plant response rating, Cupgrass, Woolly: scale 0 to 100, 0 no effect, 100 complete control; for Plant response rating (0 to 100), Cupgrass, Woolly: visual evaluation after 12 to 14 days
Text: as §1, §2

[7] = system: lambsquarters (Chenopodium album); conditions: for Plant response rating, Lambsquarters: scale 0 to 100, 0 no effect, 100 complete control
Text: as §1, §2

[8] = system: morningglory (Ipomoea hederacea); conditions: for Plant response rating, Morningglory: scale 0 to 100, 0 no effect, 100 complete control
Text: as §1, §2

[9] = system: cocklebur (Xanthium strumarium); conditions: for Plant response rating, Cocklebur: scale 0 to 100, 0 no effect, 100 complete control; for Plant response rating (0 to 100), Cocklebur: visual evaluation after 12 to 14 days
Text: as §1, §2

[10] = system: velvetleaf (Abutilon theophrasti); conditions: preemergence; for Plant response rating, Velvetleaf: scale 0 to 100, 0 no effect, 100 complete control
Text: as §1, §2

[11] = system: yellow nutsedge (Cyperus esculentus); conditions: for Plant response rating, Nutsedge: scale 0 to 100, 0 no effect, 100 complete control
Text: as §1, §2

[12] = system: corn (Zea mays); conditions: for Plant response rating, Corn: scale 0 to 100, 0 no effect, 100 complete control; for Plant response rating (0 to 100), Corn: visual evaluation after 12 to 14 days
Text: as §1, §2

[13] = system: soybean (Glycine max); conditions: preemergence; for Plant response rating, Soybean: scale 0 to 100, 0 no effect, 100 complete control
Text: as §1, §2

[14] = system: Nightshade; conditions: scale 0 to 100, 0 no effect, 100 complete control
Text: as §1, §2

[15] = system: common ragweed (Ambrosia elatior); conditions: preemergence; for Plant response rating, Ragweed, Common: scale 0 to 100, 0 no effect, 100 complete control
Text: as §1, §2

[16] = system: giant foxtail (Setaria faberii); conditions: for Plant response rating, Foxtail, Giant: scale 0 to 100, 0 no effect, 100 complete control; for Plant response rating (0 to 100), Foxtail, Giant: visual evaluation after 12 to 14 days
Text: as §1, §2

[17] = system: johnsongrass (Sorghum halepense); conditions: for Plant response rating, Johnsongrass: scale 0 to 100, 0 no effect, 100 complete control; for Plant response rating (0 to 100), Johnsongrass: visual evaluation after 12 to 14 days
Text: as §1, §2

[18] = system: pigweed (Amaranthus retroflexus); conditions: preemergence; for Plant response rating, Pigweed: scale 0 to 100, 0 no effect, 100 complete control
Text: as §1, §2

[19] = system: goosegrass (Eleusine indica); conditions: for Plant response rating, Goosegrass: scale 0 to 100, 0 no effect, 100 complete control; for Plant response rating (0 to 100), Goosegrass: visual evaluation after 12 to 14 days
Text: as §1, §2

[20] = preemergence, Rate 500 g/ha, visual evaluation after 12 to 14 days
[21] = Rate 500 g/ha, visual evaluation after 12 to 14 days

CCC(C)c1ccn(C2OCN(c3cccc(OC(F)(F)F)c3)C2=O)n1 (centres unmarked) [Compound 67]
60: Plant response rating (0 to 100), Nightshade [1] | Plant response rating, Johnsongrass ([17]; preemergence, Rate 125 g/ha)
70: Plant response rating, Cupgrass, Woolly ([6]; preemergence, Rate 125 g/ha) | Plant response rating, Nightshade ([14]; Rate 125 g/ha) | Plant response rating (0 to 100), Ragweed, Common [15, 21] | Plant response rating, Ragweed, Common ([15]; Rate 250 g/ha) | Plant response rating (0 to 100), Foxtail, Giant ([16]; preemergence, Rate 250 g/ha)
0: Plant response rating, Surinam grass ([2]; Rate 62 g/ha) | Plant response rating, Surinam grass ([2]; preemergence, Rate 125 g/ha) | Plant response rating, Morningglory ([8]; Rate 62 g/ha) | Plant response rating, Morningglory ([8]; preemergence, Rate 125 g/ha) | Plant response rating, Morningglory ([8]; preemergence, Rate 250 g/ha) | Plant response rating, Cocklebur ([9]; Rate 62 g/ha) | Plant response rating, Cocklebur ([9]; preemergence, Rate 125 g/ha) | Plant response rating, Velvetleaf ([10]; Rate 250 g/ha) | Plant response rating, Nutsedge ([11]; Rate 62 g/ha) | Plant response rating, Nutsedge ([11]; preemergence, Rate 250 g/ha) | Plant response rating, Corn ([12]; Rate 62 g/ha) | Plant response rating (0 to 100), Corn ([12]; preemergence, Rate 250 g/ha) | Plant response rating, Corn ([12]; preemergence, Rate 125 g/ha) | Plant response rating (0 to 100), Soybean [13, 21] | Plant response rating, Soybean ([13]; Rate 125 g/ha) | Plant response rating, Soybean ([13]; Rate 250 g/ha) | Plant response rating, Nightshade ([14]; Rate 62 g/ha)
90: Plant response rating, Kochia ([5]; Rate 62 g/ha) | Plant response rating (0 to 100), Kochia ([5]; preemergence, Rate 250 g/ha) | Plant response rating, Cupgrass, Woolly ([6]; Rate 62 g/ha) | Plant response rating, Pigweed ([18]; Rate 125 g/ha)
50: Plant response rating (0 to 100), Cocklebur ([9]; preemergence, Rate 500 g/ha) | Plant response rating, Velvetleaf ([10]; Rate 125 g/ha)
40: Plant response rating, Nutsedge ([11]; preemergence, Rate 125 g/ha)
30: Plant response rating (0 to 100), Velvetleaf [10, 21] | Plant response rating, Johnsongrass ([17]; Rate 62 g/ha)
20: Plant response rating (0 to 100), Morningglory [8, 20] | Plant response rating (0 to 100), Cocklebur ([9]; preemergence, Rate 250 g/ha) | Plant response rating (0 to 100), Nutsedge [11, 20] | Plant response rating, Ragweed, Common ([15]; Rate 125 g/ha)
80: Plant response rating, Nightshade ([14]; Rate 250 g/ha) | Plant response rating (0 to 100), Pigweed [18, 21] | Plant response rating, Pigweed ([18]; Rate 250 g/ha)
100: Plant response rating (0 to 100), Surinam grass ([2]; preemergence, Rate 250 g/ha) | Plant response rating (0 to 100), Surinam grass ([2]; preemergence, Rate 500 g/ha) | Plant response rating, Crabgrass ([3]; Rate 62 g/ha) | Plant response rating (0 to 100), Crabgrass ([3]; preemergence, Rate 250 g/ha) | Plant response rating (0 to 100), Crabgrass ([3]; preemergence, Rate 500 g/ha) | Plant response rating, Crabgrass ([3]; preemergence, Rate 125 g/ha) | Plant response rating, Bermudagrass ([4]; Rate 62 g/ha) | Plant response rating (0 to 100 where 0 is no effect and 100 is complete control), Bermudagrass ([4]; preemergence, Rate 250 g/ha) | Plant response rating (0 to 100 where 0 is no effect and 100 is complete control), Bermudagrass ([4]; preemergence, Rate 500 g/ha) | Plant response rating, Bermudagrass ([4]; preemergence, Rate 125 g/ha) | Plant response rating (0 to 100), Kochia ([5]; preemergence, Rate 500 g/ha) | Plant response rating, Kochia ([5]; preemergence, Rate 125 g/ha) | Plant response rating (0 to 100), Cupgrass, Woolly ([6]; preemergence, Rate 250 g/ha) | Plant response rating (0 to 100), Cupgrass, Woolly ([6]; preemergence, Rate 500 g/ha) | Plant response rating, Lambsquarters ([7]; Rate 62 g/ha) | Plant response rating (0 to 100), Lambsquarters [7, 20] | Plant response rating, Lambsquarters ([7]; preemergence, Rate 125 g/ha) | Plant response rating, Lambsquarters ([7]; preemergence, Rate 250 g/ha) | Plant response rating (0 to 100), Corn ([12]; preemergence, Rate 500 g/ha) | Plant response rating, Foxtail, Giant ([16]; Rate 62 g/ha) | Plant response rating (0 to 100), Foxtail, Giant ([16]; preemergence, Rate 500 g/ha) | Plant response rating, Foxtail, Giant ([16]; preemergence, Rate 125 g/ha) | Plant response rating (0 to 100), Johnsongrass ([17]; preemergence, Rate 250 g/ha) | Plant response rating (0 to 100), Johnsongrass ([17]; preemergence, Rate 500 g/ha) | Plant response rating, Goosegrass ([19]; Rate 62 g/ha) | Plant response rating (0 to 100), Goosegrass ([19]; preemergence, Rate 250 g/ha) | Plant response rating (0 to 100), Goosegrass ([19]; preemergence, Rate 500 g/ha) | Plant response rating, Goosegrass ([19]; preemergence, Rate 125 g/ha)
